Results as given in paper PMC9643853, “Synthesis and evaluation of 3-alkynyl-5-aryl-7-aza-indoles as broad-spectrum antiviral agents” (Frontiers in Chemistry, 2022).
Read-outs that look alike come from different tables or passages of the source.

Legend:
in vitro [1] = details: human
RSV-A = RSV-A cytopathic effect (CPE) reduction assay in HEp-2 cells, MTS read-out; type: cell-based, human respiratory syncytial virus, RSV-A strain Long; details: for EC50: read-out: RSV-A EC50
in vitro [2] = details: human; remark: listed apart in the source
VEEV (TC-83) = test: microbe, parasite or virus in culture; type: cell-based; details: Venezuelan equine encephalitis virus, U-87 MG, 18 h, read-out: VEEV EC50
AAK1 = AAK1 (Homo sapiens, UniProt Q2M2I8); test: LanthaScreen Eu Kinase Binding Assay for AAK1
Sequence of AAK1 (Q2M2I8 whole entry): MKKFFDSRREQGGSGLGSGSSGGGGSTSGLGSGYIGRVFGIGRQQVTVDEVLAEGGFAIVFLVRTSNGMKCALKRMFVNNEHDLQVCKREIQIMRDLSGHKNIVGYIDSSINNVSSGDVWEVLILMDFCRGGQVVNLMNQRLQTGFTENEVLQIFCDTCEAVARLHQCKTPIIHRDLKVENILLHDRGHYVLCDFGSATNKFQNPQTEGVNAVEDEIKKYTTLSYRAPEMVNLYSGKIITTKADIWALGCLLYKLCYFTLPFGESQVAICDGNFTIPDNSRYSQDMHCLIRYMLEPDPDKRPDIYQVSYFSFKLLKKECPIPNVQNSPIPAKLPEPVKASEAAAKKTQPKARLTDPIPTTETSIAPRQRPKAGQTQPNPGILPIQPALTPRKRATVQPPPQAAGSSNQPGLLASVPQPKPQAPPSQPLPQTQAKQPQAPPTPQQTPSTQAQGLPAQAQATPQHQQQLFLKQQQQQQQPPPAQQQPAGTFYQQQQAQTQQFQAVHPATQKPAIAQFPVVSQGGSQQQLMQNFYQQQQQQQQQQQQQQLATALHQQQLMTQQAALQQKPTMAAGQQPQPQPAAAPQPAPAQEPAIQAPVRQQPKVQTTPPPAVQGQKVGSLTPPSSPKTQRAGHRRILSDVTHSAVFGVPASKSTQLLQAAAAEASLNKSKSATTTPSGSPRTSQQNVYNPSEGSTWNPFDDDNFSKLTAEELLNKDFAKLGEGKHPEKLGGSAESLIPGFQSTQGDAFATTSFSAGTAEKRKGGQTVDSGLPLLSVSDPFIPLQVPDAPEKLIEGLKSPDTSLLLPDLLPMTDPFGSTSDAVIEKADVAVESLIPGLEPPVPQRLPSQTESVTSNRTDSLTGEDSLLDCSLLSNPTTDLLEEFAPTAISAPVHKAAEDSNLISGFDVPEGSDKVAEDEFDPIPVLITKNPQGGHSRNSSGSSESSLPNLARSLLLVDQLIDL

SARS-CoV-2 = test: microbe, parasite or virus in culture; type: cell-based, SARS-CoV-2 BetaCov/Belgium/GHB-03021/2020; details: Severe acute respiratory syndrome coronavirus 2, 96 h, read-out: SARS-CoV-2 EC50
[3] = human respiratory syncytial virus, HEp-2, 96 h
[4] = HEp-2 cells, inhibition of virus-induced cytopathogenicity by 50%, MOI 0.01, 4 days

Row | Compound | CC50 (in vitro [1]) [µM] | EC50 (RSV-A; [3]) [µM] | CC50 at 4 days (in vitro [2]) [µM] | EC50 (VEEV (TC-83)) [µM] | anti-RSV activity (in words) (RSV-A; HEp-2 cells) | loss of activity against RSV-A relative to compound 4d (RSV-A; HEp-2 cells) [fold] | AAK1 affinity (in words) (AAK1) | IC50 (AAK1) [µM] | loss in anti-RSV activity relative to compound 8f (RSV-A; HEp-2 cells) [fold] | EC50 (SARS-CoV-2) [µM] | EC50 (RSV-A; [4]) [µM]
1 | COc1ccc(-c2cnc3[nH]cc(C#Cc4cccnc4)c3c2)cc1 [Compound 4a, 5-(4-Methoxyphenyl)-3-(pyridin-3-ylethynyl)-1H-pyrrolo[2,3-b]pyridine] | > 10 | 0.048 ± 0.037 | 0.24 ± 0.23 | 6.81 ± 1.87 |  |  |  |  |  |  | 
2 | COc1cccc(-c2cnc3[nH]cc(C#Cc4cccnc4)c3c2)c1 [Compound 4b] | > 10 | 0.67 ± 0.43 | 6 ± 5.66 | > 10 |  |  |  |  |  |  | 
3 | COc1ccccc1-c1cnc2[nH]cc(C#Cc3cccnc3)c2c1 [Compound 4c] | > 10 | 0.69 ± 0.32 | 6 ± 5.66 | 5.34 ± 1.87 |  |  |  |  |  |  | 
4 | COc1cc(-c2cnc3[nH]cc(C#Cc4cccnc4)c3c2)cc(OC)c1OC [Compound 4e] | > 10 | 0.71 ± 0.55 | 1.2 ± 1.13 | 1.5 ± 0.17 |  |  |  |  |  |  | 
5 | COCCOc1ccc(-c2cnc3[nH]cc(C#Cc4cccnc4)c3c2)cc1 [Compound 4f] | > 10 | 30 ± 28.3 | > 50 | > 10 | completely devoid of anti-RSV activity |  |  |  |  |  | 
6 | COc1cc(-c2cnc3[nH]cc(C#Cc4cccnc4)c3c2)ccn1 [Compound 4g] | > 10 | 2.71 ± 1.01 | > 50 | > 10 |  |  |  |  |  |  | 
7 | Clc1cccc(-c2cnc3[nH]cc(C#Cc4cccnc4)c3c2)c1 [Compound 4h] | > 10 | 2.89 ± 2.24 | > 50 | > 10 |  |  |  |  |  |  | 
8 | Fc1ccc(-c2cnc3[nH]cc(C#Cc4cccnc4)c3c2)cc1 [Compound 4i] | > 10 | 2.23 ± 1.32 | > 50 | 9.05 ± 1.03 |  |  |  |  |  |  | 
9 | C(#Cc1c[nH]c2ncc(-c3ccoc3)cc12)c1cccnc1 [Compound 4j] | > 10 | 47.8 ± 3.07 | > 50 | > 10 | completely devoid of anti-RSV activity |  |  |  |  |  | 
10 | C(#Cc1c[nH]c2ncc(-c3ccsc3)cc12)c1cccnc1 [Compound 4k] | > 10 | 4.83 ± 1.44 | > 50 | > 10 |  |  |  |  |  |  | 
11 | COc1cc(OC)cc(-c2cnc3[nH]cc(C#Cc4ccccn4)c3c2)c1 [Compound 5a] | > 10 | 0.08 | 0.24 ± 0.23 | > 10 |  |  |  |  |  |  | 
12 | COc1cc(OC)cc(-c2cnc3[nH]cc(C#Cc4ccccc4)c3c2)c1 [Compound 5b] | > 10 | 1.59 ± 0.59 | 6 ± 4.35 | > 10 |  |  |  |  |  |  | 
13 | COc1cc(OC)cc(-c2cnc3[nH]cc(C#Cc4ccc(F)cc4)c3c2)c1 [Compound 5c] | > 10 | 0.36 ± 0.064 | 1.66 ± 0.89 | 6.27 ± 0.93 |  |  |  |  |  |  | 
14 | COc1cc(OC)cc(-c2cnc3[nH]cc(C#Cc4cccc(Cl)c4)c3c2)c1 [Compound 5d] | > 10 | 16.3 | > 50 | 6.13 ± 0.94 |  | 30 |  |  |  |  | 
15 | COc1cccc(C#Cc2c[nH]c3ncc(-c4cc(OC)cc(OC)c4)cc23)c1 [Compound 5e] | > 10 | 2.75 ± 0.24 | > 50 | 6.29 ± 2.71 |  | 5 |  |  |  |  | 
16 | COc1cc(OC)cc(-c2cnc3[nH]cc(C#Cc4ccsc4)c3c2)c1 [Compound 5f] | > 10 | 0.31 ± 0.13 | 1.84 ± 0.95 | 4.3 ± 0.47 |  |  |  |  |  |  | 
17 | COc1cc(OC)cc(-c2cnc3c(c2)c(C#Cc2cccnc2)cn3C)c1 [Compound 7a] | > 10 | 1.65 ± 0.5 | 30 ± 28.3 | > 10 |  |  | no AAK1 affinity | > 10 |  |  | 
18 | CCn1cc(C#Cc2cccnc2)c2cc(-c3cc(OC)cc(OC)c3)cnc21 [Compound 7b] | > 10 | > 2 | 2 | 3.92 ± 1.15 |  |  |  |  |  |  | 

Row | Compound | CC50 (in vitro [1]) [µM] | EC50 (RSV-A; [3]) [µM] | CC50 at 4 days (in vitro [2]) [µM] | EC50 (VEEV (TC-83)) [µM] | anti-RSV activity (in words) (RSV-A; HEp-2 cells) | loss of activity against RSV-A relative to compound 4d (RSV-A; HEp-2 cells) [fold] | AAK1 affinity (in words) (AAK1) | IC50 (AAK1) [µM] | loss in anti-RSV activity relative to compound 8f (RSV-A; HEp-2 cells) [fold] | EC50 (SARS-CoV-2) [µM] | EC50 (RSV-A; [4]) [µM]
19 | COc1cc(OC)cc(-c2cnc3c(c2)c(C#Cc2cccnc2)cn3CC(C)C)c1 [Compound 7c] | > 10 | > 10 | 10.7 ± 0.98 | > 10 |  |  |  |  |  |  | 
20 | COc1cc(OC)cc(-c2cnc3c(c2)c(C#Cc2cccnc2)cn3Cc2ccccc2)c1 [Compound 7d] | > 10 | 4.88 ± 0.28 | > 50 | > 10 |  |  |  |  |  |  | 
21 | CNC(=O)c1ccc(-c2cnc3[nH]cc(C#Cc4cccnc4)c3c2)cc1 [Compound 8a] | > 10 | 0.89 ± 0.4 | 6 ± 5.66 | 2.72 ± 0.93 |  |  |  |  |  |  | 
22 | O=C(NC1CC1)c1ccc(-c2cnc3[nH]cc(C#Cc4cccnc4)c3c2)cc1 [Compound 8d] | > 10 | 4.63 ± 3.71 | 50 | > 10 |  |  |  |  |  |  | 
23 | O=C(NCc1ccccc1)c1cccc(-c2cnc3[nH]cc(C#Cc4cccnc4)c3c2)c1 [Compound 8i] | > 10 | 2.71 ± 2.88 | > 50 | 1.29 ± 1.41 |  |  |  |  |  |  | 
24 | CN(C)C(=O)c1cccc(-c2cnc3[nH]cc(C#Cc4cccnc4)c3c2)c1 [Compound 8j] | > 10 | 3.65 ± 2.28 | > 50 | 4.57 ± 4.87 |  |  |  |  |  |  | 
25 | O=C(c1cccc(-c2cnc3[nH]cc(C#Cc4cccnc4)c3c2)c1)N1CCOCC1 [Compound 8m] | > 10 | 3.42 ± 4.4 | 10.9 ± 0.69 | > 10 |  |  |  |  |  |  | 
26 | O=C(NC1CC1)c1cccc(-c2cnc3[nH]cc(C#Cc4ccc(F)nc4)c3c2)c1 [Compound 9a] | > 10 | 1.76 ± 0.91 | > 50 | 6.54 ± 1.21 |  |  |  |  | 10 |  | 
27 | COc1cncc(C#Cc2c[nH]c3ncc(-c4cccc(C(=O)NC5CC5)c4)cc23)c1 [Compound 9b] | 8.99 ± 1.6 | 0.24 ± 0.057 | 22.2 ± 3.68 | 1.39 ± 0.2 |  |  |  |  |  |  | 
28 | O=C(NC1CC1)c1cccc(-c2cnc3[nH]cc(C#Cc4ccccc4)c3c2)c1 [Compound 9d] | > 10 | 0.82 ± 0.22 | > 50 | > 10 |  |  |  |  |  |  | 
29 | O=C(NC1CC1)c1cccc(-c2cnc3[nH]cc(C#Cc4ccsc4)c3c2)c1 [Compound 9e] | > 10 | 0.51 ± 0.16 | > 50 | > 10 |  |  |  |  |  |  | 
30 | O=C(NC1CC1)c1cccc(-c2cnc3[nH]cc(C#Cc4cccc(Cl)c4)c3c2)c1 [Compound 9f] | > 10 | > 50 | > 50 | 6.7 ± 2.79 | inactive |  |  |  |  |  | 
31 | COc1cccc(C#Cc2c[nH]c3ncc(-c4cccc(C(=O)NC5CC5)c4)cc23)c1 [Compound 9g] | > 10 | 0.1 ± 0.19 | > 20 | 5.27 ± 1.01 |  |  |  |  |  |  | 
32 | N#C[C@@]1(c2ccc3c(N)ncnn23)O[C@H](CO)[C@@H](O)[C@H]1O [GS-441524, reference compound] |  |  |  |  |  |  |  |  |  | 0.7 ± 0.07 | 
33 | CN1CCN(C)/C(=N/c2ccc([N+](=O)[O-])cc2C(=O)Nc2ccccc2)C1 [ML-336, (E)-2-((1,4-Dimethylpiperazin-2-ylidene)amino)-5-nitro-N-phenylbenzamide, reference compound] | > 10 |  |  | 0.04 ± 0.01 |  |  |  |  |  |  | 
34 | NC(=O)c1ncn([C@@H]2O[C@H](CO)[C@@H](O)[C@H]2O)n1 [Ribavirin, reference compound] |  | 3.11 ± 1.85 | > 50 |  |  |  |  |  |  |  | 
35 | Cc1ccc(CCCO)c(NCc2ccc3nc(NCCCN4CCOCC4)n(Cc4nc(C)ccc4O)c3c2)c1 [TMC353121, reference compound] |  |  |  |  |  |  |  |  |  |  | 0.0013 ± 0.0008
36 | dextran sulfate sodium salt [DS-10000, reference compound] |  |  |  |  |  |  |  |  |  |  | 0.068 ± 0.045
